Tests used:
[1] = molecular target: T1, EtROP2 (rhoptry kinase 2) (Eimeria tenella, UniProt U6KH66); test: ADP-Glo kinase assay with p120-TLTR peptide substrate, […] ATP; format: biochemical; set-up: gene ETH_00027700; EtROP2-GST, wild type, full-length, from Met1 to Glu671, produced in Sf9 cells
[2] = molecular target: T1, EtROP2 (rhoptry kinase 2); set-up: gene ETH_00027700

T1 sequence (U6KH66 entry or part of it): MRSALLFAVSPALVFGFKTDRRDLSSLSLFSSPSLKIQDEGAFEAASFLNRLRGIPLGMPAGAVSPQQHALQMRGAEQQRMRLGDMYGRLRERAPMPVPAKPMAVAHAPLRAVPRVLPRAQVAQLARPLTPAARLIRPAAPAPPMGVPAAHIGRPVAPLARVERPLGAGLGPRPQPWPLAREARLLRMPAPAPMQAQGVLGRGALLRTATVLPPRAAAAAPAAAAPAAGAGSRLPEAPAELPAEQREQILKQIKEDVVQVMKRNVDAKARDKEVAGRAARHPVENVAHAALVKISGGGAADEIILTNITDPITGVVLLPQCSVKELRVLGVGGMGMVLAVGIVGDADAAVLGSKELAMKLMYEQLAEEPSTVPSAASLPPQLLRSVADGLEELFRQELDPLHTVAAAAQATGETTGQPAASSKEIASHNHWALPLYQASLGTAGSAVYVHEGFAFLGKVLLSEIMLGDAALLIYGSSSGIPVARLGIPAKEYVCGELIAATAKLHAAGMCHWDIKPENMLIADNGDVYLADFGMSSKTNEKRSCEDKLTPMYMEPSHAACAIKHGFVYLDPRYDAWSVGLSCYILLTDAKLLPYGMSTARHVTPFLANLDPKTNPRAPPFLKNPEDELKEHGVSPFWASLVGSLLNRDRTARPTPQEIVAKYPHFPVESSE

Compound	IC50 [1] [nM]	Km [2] [µM]
CN[C@@H]1C[C@H]2O[C@@](C)([C@@H]1OC)n1c3ccccc3c3c4c(c5c6ccccc6n2c5c31)C(=O)NC4 [STS, staurosporine]	291	–
Nc1ncnc2c1ncn2[C@@H]1O[C@H](COP(=O)(O)OP(=O)(O)OP(=O)(O)O)[C@@H](O)[C@H]1O [ATP]	–	~7.52

Source: article PMC10434272, “Overexpression of Eimeria tenella Rhoptry Kinase 2 Induces Early Production of Schizonts” (Microbiology Spectrum, 2023)
